# Source: paper PMC9241695, “Selective Metal Chelation by a Thiosemicarbazone Derivative Interferes with Mitochondrial Respiration and Ribosome Biogenesis in Candida albicans” (Microbiology Spectrum, 2022)
# Key:
# A. fumigatus AF293 = test: Antifungal susceptibility testing, microbroth dilution MIC; assay type: cell-based; settings: Aspergillus fumigatus, AF293; standard strain of A. fumigatus; 48 h; read-out: MIC (μg/mL) against fungi AF293
# Source text: (§1) Compound library. The thiosemicarbazone derivatives Triapine and COTI-2 were purchased from Med Chem Express (MCE). The other 87 thiosemicarbazones used in this study were previously synthesized by our collaborators (1, 2). Their structures are shown in Table 1 and Table S1 to help the reader clearly understand the relationship between structure and activity.
# (§2) Strains and culture conditions. Clinically derived C. albicans isolates, including G5, F5, and Gu5, were kindly provided by Professor Joachim Morschhäuser of the University of Würzburg. Other clinical C. albicans isolates were kindly donated by Professor Qingguo Qi of Shandong University and Qianfoshan Hospital of Shandong Province Other Candida strains were obtained from Jinan Central Hospital.
# (§3) The zap1 mutant and its complemented strain were kindly provided by Professor Aaron P. Mitchell of Carnegie Mellon University (3). The C. neoformans strains used in this study was kindly donated by Professor Guojian Liao of Southwest University and A. fumigatus strain used in this study was provided by Professor Ling Lu of Nanjing Normal University. […]
# (§4) Antifungal susceptibility testing. To determine in vitro antifungal activities, the microbroth dilution method was carried out in RPMI1640 medium according to the guidelines of the Clinical and Laboratory Standards Institute (4, 5). The initial concentration in RPMI1640 medium was 1 × 10^3 CFU/mL for the C. albicans and C. neoformans suspensions but 1 × 10^4 CFU/mL for A. fumigatus. The range of final drug concentrations was 0.0156–64 μg/mL. The plates were incubated at35°C for 24 […]
# (§5) h (for C. albicans, C. krusei, C. tropicalis, C. parapsilosis) or 48 h (for C. neoformans, A. fumigatus). The MIC was determined based on visible growth inhibition compared with the control. All experiments were performed in duplicate. […]
# C. neoformans H99 = test: as above; assay type: cell-based; settings: Cryptococcus neoformans, H99; C. neoformans wild-type strain; 48 h; read-out: MIC (μg/mL) against fungi H99
# Source text: as §1, §2, §3, §4, §5
# C. albicans SC5314 [1] = test: Minimal fungicidal concentration (MFC); assay type: cell-based; settings: Candida albicans, read-out: MFC against C. albicans SC5314
# C. krusei CK1 = test: Microbroth dilution MIC80; assay type: cell-based, Candida krusei; settings: Pichia kudriavzevii, CK1
# Source text: as §1, §2
# as §3, with “University. Before in vitro and in vivo experiments, all C. albicans strains were grown on YPD agar plates. After culturing at 30°C for 24 h, colonies of each strain were cultured in liquid YPD medium at 30°C with continuous shaking” for “University.”
# as §4, §5
# C. albicans G5 = test: microbe, parasite or virus in culture; assay type: cell-based; settings: Candida albicans, G5
# Source text: as §1, §2
# as §3, with “University. Before in vitro and in vivo experiments, all C. albicans strains were grown on YPD agar plates. After culturing at 30°C for 24 h, colonies of each strain were cultured in liquid YPD medium at 30°C with continuous shaking” for “University.”
# as §4, §5
# C. albicans Gu5 = test: microbe, parasite or virus in culture; assay type: cell-based; settings: Candida albicans, GU5
# Source text: as §1, §2
# as §3, with “University. Before in vitro and in vivo experiments, all C. albicans strains were grown on YPD agar plates. After culturing at 30°C for 24 h, colonies of each strain were cultured in liquid YPD medium at 30°C with continuous shaking” for “University.”
# as §4, §5
# [2] = tested on: human hepatocellular carcinoma cell line HepG2; test: Cytotoxicity testing (MTT); assay type: cell-based; settings: ratio of IC50 against HepG2 to MIC80 against C. albicans SC5314
# [3] = Cytotoxicity testing (MTT); assay type: cell-based, human; settings: human, HepG2 cells (hepatocellular carcinoma cell line)
# [4] = Cytotoxicity testing (MTT); assay type: cell-based, human; settings: human, 48 h, MTT
# Description: (§6) h (for C. albicans, C. krusei, C. tropicalis, C. parapsilosis) or 48 h (for C. neoformans, A. fumigatus). The MIC was determined based on visible growth inhibition compared with the control. All experiments were performed in duplicate.
# (§7) Cytotoxicity testing. The cell lines HK2 and 16HBE were used to evaluate the cytotoxicity of 19ak, 19k and 19t. Cells in DMEM containing 10% fetal bovine serum (Gibco) were seeded in 96-well tissue culture plates at a cell density of 1 × 10^4 cells/mL and incubated for 24 h to allow adhesion. The supernatant was then replaced with fresh DMEM containing various concentrations of 19ak, 19k and 19t. The plates were subsequently incubated for an additional 48 h at 37°C with 5% CO2, followed by the addition of 10 μL of MTT solution to each well and incubation at 37°C for 4 h.
# (§8) The effects of the compounds on cell proliferation were detected by measuring the absorbance at 570 nm in a microplate reader (BioTek, VT, USA). Three independent experiments were conducted. […]
# [5] = tested on: human bronchial epithelial cell line 16HBE; test: Cytotoxicity testing (MTT); assay type: cell-based; settings: ratio of IC50 against 16HBE to MIC80 against C. albicans SC5314
# Description: as §6, §7, §8
# [6] = tested on: human renal epithelial cell line HK2; test: Cytotoxicity testing (MTT); assay type: cell-based; settings: ratio of IC50 against HK2 to MIC80 against C. albicans SC5314
# Description: as §6, §7, §8
# C. albicans DSY654 = test: Microbroth dilution MIC80; assay type: cell-based; settings: Candida albicans
# Source text: as §1, §2
# as §3, with “University. Before in vitro and in vivo experiments, all C. albicans strains were grown on YPD agar plates. After culturing at 30°C for 24 h, colonies of each strain were cultured in liquid YPD medium at 30°C with continuous shaking” for “University.”
# as §4, §5
# C. albicans YEM15 = test: Microbroth dilution MIC80; assay type: cell-based; settings: Candida albicans, YEM15
# Source text: as §1, §2
# as §3, with “University. Before in vitro and in vivo experiments, all C. albicans strains were grown on YPD agar plates. After culturing at 30°C for 24 h, colonies of each strain were cultured in liquid YPD medium at 30°C with continuous shaking” for “University.”
# as §4, §5
# C. neoformans 108 = test: Microbroth dilution MIC80; assay type: cell-based; settings: Cryptococcus neoformans, 108
# Source text: as §1, §2
# as §3, with “University. Before in vitro and in vivo experiments, all C. albicans strains were grown on YPD agar plates. After culturing at 30°C for 24 h, colonies of each strain were cultured in liquid YPD medium at 30°C with continuous shaking” for “University.”
# as §4, §5
# C. albicans 11e = test: Microbroth dilution MIC80; assay type: cell-based; settings: Candida albicans, 11E
# Source text: as §1, §2
# as §3, with “University. Before in vitro and in vivo experiments, all C. albicans strains were grown on YPD agar plates. After culturing at 30°C for 24 h, colonies of each strain were cultured in liquid YPD medium at 30°C with continuous shaking” for “University.”
# as §4, §5
# C. albicans YEM13 = test: Microbroth dilution MIC80; assay type: cell-based; settings: Candida albicans
# Source text: as §1, §2
# as §3, with “University. Before in vitro and in vivo experiments, all C. albicans strains were grown on YPD agar plates. After culturing at 30°C for 24 h, colonies of each strain were cultured in liquid YPD medium at 30°C with continuous shaking” for “University.”
# as §4, §5
# C. albicans CA1 = test: Microbroth dilution MIC80; assay type: cell-based; settings: Candida albicans, CA1
# Source text: as §1, §2
# as §3, with “University. Before in vitro and in vivo experiments, all C. albicans strains were grown on YPD agar plates. After culturing at 30°C for 24 h, colonies of each strain were cultured in liquid YPD medium at 30°C with continuous shaking” for “University.”
# as §4, §5
# C. albicans 28I = test: Microbroth dilution MIC80; assay type: cell-based; settings: Candida albicans, 28I
# Source text: as §1, §2
# as §3, with “University. Before in vitro and in vivo experiments, all C. albicans strains were grown on YPD agar plates. After culturing at 30°C for 24 h, colonies of each strain were cultured in liquid YPD medium at 30°C with continuous shaking” for “University.”
# as §4, §5
# C. tropicalis CT2 = test: Microbroth dilution MIC80; assay type: cell-based; settings: Candida tropicalis, CT2
# Source text: as §1, §2
# as §3, with “University. Before in vitro and in vivo experiments, all C. albicans strains were grown on YPD agar plates. After culturing at 30°C for 24 h, colonies of each strain were cultured in liquid YPD medium at 30°C with continuous shaking” for “University.”
# as §4, §5
# C. albicans CA4 = test: Microbroth dilution MIC80; assay type: cell-based; settings: Candida albicans, CA4
# Source text: as §1, §2
# as §3, with “University. Before in vitro and in vivo experiments, all C. albicans strains were grown on YPD agar plates. After culturing at 30°C for 24 h, colonies of each strain were cultured in liquid YPD medium at 30°C with continuous shaking” for “University.”
# as §4, §5
# C. albicans 28D = test: Microbroth dilution MIC80; assay type: cell-based; settings: Candida albicans, 28D
# Source text: as §1, §2
# as §3, with “University. Before in vitro and in vivo experiments, all C. albicans strains were grown on YPD agar plates. After culturing at 30°C for 24 h, colonies of each strain were cultured in liquid YPD medium at 30°C with continuous shaking” for “University.”
# as §4, §5
# C. albicans 28A = test: Microbroth dilution MIC80; assay type: cell-based; settings: Candida albicans, 28A
# Source text: as §1, §2
# as §3, with “University. Before in vitro and in vivo experiments, all C. albicans strains were grown on YPD agar plates. After culturing at 30°C for 24 h, colonies of each strain were cultured in liquid YPD medium at 30°C with continuous shaking” for “University.”
# as §4, §5
# A. fumigatus 1161 = test: Microbroth dilution MIC80; assay type: cell-based; settings: Aspergillus fumigatus, 1161
# Source text: as §1, §2
# as §3, with “University. Before in vitro and in vivo experiments, all C. albicans strains were grown on YPD agar plates. After culturing at 30°C for 24 h, colonies of each strain were cultured in liquid YPD medium at 30°C with continuous shaking” for “University.”
# as §4, §5
# C. albicans 24g = test: Microbroth dilution MIC80; assay type: cell-based; settings: Candida albicans, 24G
# Source text: as §1, §2
# as §3, with “University. Before in vitro and in vivo experiments, all C. albicans strains were grown on YPD agar plates. After culturing at 30°C for 24 h, colonies of each strain were cultured in liquid YPD medium at 30°C with continuous shaking” for “University.”
# as §4, §5
# C. albicans 11f = test: Microbroth dilution MIC80; assay type: cell-based; settings: Candida albicans, 11F
# Source text: as §1, §2
# as §3, with “University. Before in vitro and in vivo experiments, all C. albicans strains were grown on YPD agar plates. After culturing at 30°C for 24 h, colonies of each strain were cultured in liquid YPD medium at 30°C with continuous shaking” for “University.”
# as §4, §5
# C. albicans F5 = test: Microbroth dilution MIC80; assay type: cell-based; settings: Candida albicans, F5
# Source text: as §1, §2
# as §3, with “University. Before in vitro and in vivo experiments, all C. albicans strains were grown on YPD agar plates. After culturing at 30°C for 24 h, colonies of each strain were cultured in liquid YPD medium at 30°C with continuous shaking” for “University.”
# as §4, §5
# C. albicans CA3 = test: Microbroth dilution MIC80; assay type: cell-based; settings: Candida albicans, CA3
# Source text: as §1, §2
# as §3, with “University. Before in vitro and in vivo experiments, all C. albicans strains were grown on YPD agar plates. After culturing at 30°C for 24 h, colonies of each strain were cultured in liquid YPD medium at 30°C with continuous shaking” for “University.”
# as §4, §5
# C. albicans SC5314 [7] = test: Antifungal susceptibility testing, microbroth dilution MIC; assay type: cell-based; settings: Candida albicans, SC5314; C. albicans wild-type strain; RPMI1640, 35°C, 24 h; read-out: MIC (μg/mL) against fungi SC5314
# Source text: as §1, §2
# as §3, with “University. Before in vitro and in vivo experiments, all C. albicans strains were grown on YPD agar plates. After culturing at 30°C for 24 h, colonies of each strain were cultured in liquid YPD medium at 30°C with continuous shaking” for “University.”
# as §4, §5
# C. parapsilosis CP001 = test: Microbroth dilution MIC80; assay type: cell-based, Candida parapsilosis; settings: Lodderomyces parapsilosis, CP001
# Source text: as §1, §2
# as §3, with “University. Before in vitro and in vivo experiments, all C. albicans strains were grown on YPD agar plates. After culturing at 30°C for 24 h, colonies of each strain were cultured in liquid YPD medium at 30°C with continuous shaking” for “University.”
# as §4, §5
smiles,measurement,setting,value
S=C(N/N=C/c1ccc(Br)cn1)Nc1ccc(Br)cc1 [Compound 19k],MIC,A. fumigatus AF293,8 µg/mL
same,MIC,C. neoformans H99,0.031 µg/mL
same,MFC,C. albicans SC5314 [1],> 64 µg/mL
same,MIC80,C. krusei CK1,4 µg/mL
same,MIC80,C. albicans G5,4 µg/mL
same,MIC80,C. albicans Gu5,2 µg/mL
same,Selectivity index HepG2,[2],28
same,IC50,[3],28 µg/mL
same,IC50 at 48 h,"[4]; 16HBE cells (bronchial epithelial cell line), 16HBE cells",36.4 µg/mL
same,IC50 at 48 h,"[4]; HK2 cells (renal epithelial cell line), HK2 cells",63.9 µg/mL
same,Selectivity index 16HBE,[5],36.43
same,Selectivity index HK2,[6],63.88
same,MIC80,C. albicans DSY654,1 µg/mL
same,MIC80,C. albicans YEM15,2 µg/mL
same,MIC80,C. neoformans 108,0.031 µg/mL
same,MIC80,C. albicans 11e,2 µg/mL
same,MIC80,C. albicans YEM13,2 µg/mL
same,MIC80,C. albicans CA1,1 µg/mL
same,MIC80,C. albicans 28I,1 µg/mL
same,MIC80,C. tropicalis CT2,2 µg/mL
same,MIC80,C. albicans CA4,0.5 µg/mL
same,MIC80,C. albicans 28D,1 µg/mL
same,MIC80,C. albicans 28A,2 µg/mL
same,MIC80,A. fumigatus 1161,0.5 µg/mL
same,MIC80,C. albicans 24g,1 µg/mL
same,MIC80,C. albicans 11f,2 µg/mL
same,MIC80,C. albicans F5,1 µg/mL
same,MIC80,C. albicans CA3,1 µg/mL
same,MIC,C. albicans SC5314 [7],1 µg/mL
same,MIC80,C. parapsilosis CP001,2 µg/mL
